# Results from PubChem BioAssay (NCI).
#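 Each compound was tested at five concentrations against cells in 96-well plates for 48 hours. TGI marks complete inhibition of growth.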
# Experiments:
# Assay in all cases: growth of human tumour cells (NCI), 48 h
# [1] = tested on: U251 CNS
# [2] = tested on: SR leukemia
# [3] = tested on: SF-268 CNS
# [4] = tested on: HS 578T breast
# [5] = tested on: A549 NSCLC
# [6] = tested on: HOP-92 NSCLC
# [7] = tested on: MALME-3M melanoma
# [8] = tested on: NCI/ADR-RES ovarian
# [9] = tested on: SNB-75 CNS
# [10] = tested on: KM12 colon
# [11] = tested on: MDA-MB-231 breast
# [12] = tested on: SF-539 CNS
# [13] = tested on: UACC-62 melanoma
Compound,TGI [1],TGI [2],TGI [3],TGI [4],TGI [5],TGI [6],TGI [7],TGI [8],TGI [9],TGI [10],TGI [11],TGI [12],TGI [13]
COC(CN(C(=O)c1ccccc1)C1CCC2(SCCS2)c2[nH]c3ccccc3c21)OC (stereo not drawn),> 100 µM,> 100 µM,> 100 µM,> 100 µM,> 100 µM,> 100 µM,> 100 µM,> 100 µM,> 100 µM,> 100 µM,> 100 µM,> 100 µM,–
C[C@H]1[C@H](C)CC[C@]2(C)CC[C@]3(C)C(=C[C@@H](O)[C@@H]4[C@@]5(C)[C@H](O)[C@@H](O)[C@H](O)C(C)(C)[C@@H]5CC[C@]43C)[C@H]12,> 100 µM,> 100 µM,> 100 µM,> 100 µM,> 100 µM,–,–,> 100 µM,–,> 100 µM,> 100 µM,> 100 µM,> 100 µM
CN(C)C1=Nc2ccccc2C(=S)N2CSCC12 (stereo not drawn),> 100 µM,48 µM,> 100 µM,> 100 µM,> 100 µM,–,51.8 µM,> 100 µM,> 100 µM,> 100 µM,> 100 µM,–,> 100 µM
C=CCN1C[C@H](C)N([C@H](c2ccc(C(=O)N(CC)CCO)cc2)c2cccc(OC)c2)C[C@H]1C,> 100 µM,> 100 µM,> 100 µM,> 100 µM,> 100 µM,> 100 µM,> 100 µM,> 100 µM,–,> 100 µM,> 100 µM,> 100 µM,> 100 µM
CCC1c2[nH]c3ccccc3c2C[C@H]2C(=O)NC(COC(C)(C)C)C(=O)N12 (stereo partly drawn),> 100 µM,> 100 µM,> 100 µM,> 100 µM,> 100 µM,90.6 µM,94.7 µM,> 100 µM,78.6 µM,> 100 µM,> 100 µM,–,> 100 µM
CCOC(=O)CC1CCN(C(=O)c2ccccc2)C2Cc3c([nH]c4ccccc34)C12C[N+](=O)[O-] (stereo not drawn),> 100 µM,> 100 µM,> 100 µM,> 100 µM,–,> 100 µM,> 100 µM,> 100 µM,> 100 µM,> 100 µM,> 100 µM,> 100 µM,> 100 µM
CC12CCC(C(=O)OC1=O)C2(C)C (stereo not drawn),> 100 µM,64.3 µM,> 100 µM,> 100 µM,–,–,> 100 µM,> 100 µM,> 100 µM,> 100 µM,> 100 µM,> 100 µM,> 100 µM
CC(C)CC1[C@@H](OCc2ccccc2)COS(=O)N1Cc1ccccc1 (stereo partly drawn),> 100 µM,73.1 µM,> 100 µM,80 µM,> 100 µM,–,72.9 µM,> 100 µM,70.7 µM,96.2 µM,> 100 µM,–,> 100 µM
COc1ccc2c3c1O[C@H]1C(O)CCC4(O)[C@@H](C2)NCC[C@]314 (stereo partly drawn),> 100 µM,> 100 µM,> 100 µM,> 100 µM,> 100 µM,> 100 µM,> 100 µM,> 100 µM,–,> 100 µM,> 100 µM,> 100 µM,> 100 µM
